# Earlier results as cited in US20220016034A1, “OPIOID RECEPTOR MODULATOR DOSAGE FORMULATIONS” (Allergan Holdings Unlimited Company, priority 2020, published 2022).
# Tested on: stressed and non-stressed mice
smiles,measurement,value
CN(C)C(=O)C(CCN1CCC(O)(c2ccc(Cl)cc2)CC1)(c1ccccc1)c1ccccc1 [loperamide],gastrointestinal transit and fecal output,completely prevented fecal output in a dose-dependent manner
